Measurements taken from US6869929B2, “Use of transcription factors for treating inflammation and other diseases” (Beth Israel Deaconess Medical Center, priority 2000, dated 2005).

Experiments:
Assay type in all cases: cell-based, human
ESE-1 [1] = assay: ESE-1 mRNA RT-PCR in immortalized chondrocytes T/C28a2, C28/I2, C20/A4; conditions: T/C28a2, C28/I2 and C20/A4 chondrocytes; 24 hours
Experimental: (§1) U-87 Mg and U-138 Mg (human glioma), THP-1 (human monocytic), RAW 264.7 (murine monocytic), LB-12 (human osteoblast-like large T antigen transformed bone marrow stromal cells), and human chondrocytes were grown and treated with cytokines as described (Apperley, J., et al. 1990. J Bone Mineral Res. 5:S93; Goldring, M. B., et al. 1994. J Clin Invest 94:2307-16; Goldring, S. R., et al. 1983. J Bone Joint Surg 65:575-84; Libermann, T. A., et al. 1987. Embo J. 6:1627-1632).
(§2) cDNAs were generated from 1 μg of total RNA using Ready-To-Go™ You-prime First-Strand Beads (Amersham Pharmacia Biotech Inc). RT-PCR amplifications of 0.1 μg cDNA were carried out using a MJResearch thermal cycler PTC-100 as follows: 5 min at 94° C., 20-37 cycles of 30 sec at 94° C., 30 sec at 56° C., and 30 sec at 72° C., followed by 5 min at 72° C. (Oettgen, P., et al. 2000, J Biol Chem 275:1216-25). The sequences of the human ESE-1 primers and the primers for human GAPDH were as described (Oettgen, P., et al. 1999, J Biol Chem 274:29439-52).
To test the hypothesis that ESE-1 is a mediator of cytokine responses in non-epithelial cell types, we analyzed ESE-1 expression in response to a variety of cytokines in several connective tissue cell types. Immortalized human chondrocytes, T/C28a2, C28/I2, and C20/A4 (Goldring, M. B., et al. 1994, J Clin Invest 94:2307-16), were stimulated with IL-1β, TNF-α and IFN-γ for 24 hours. […] The kinetics of ESE-1 induction was explored in a time course experiment with T/ C28a2 chondrocytes.

ESE-1 [2] = assay: ESE-1 mRNA Northern blot in LB-12 osteoblasts; conditions: LB-12 cells; 1, 2, 6, 24 hours
Experimental: as §1
Total RNA was harvested using QIAshreder (Qiagen) and RNeasy® Mini Kit (Quiagen) or Trizol (Gibco BRL). Poly A^+ RNA was prepared with MicroPoly(A) Pure (Ambion). Northern blots (5 μg total RNA) were hybridized using a full length ESE-1 cDNA probe as described (Oettgen, P., et al. et al. 1997, Mol Cell Biol 17:4419-33.).
Osteoblasts, the bone cells responsible for bone formation, represent another connective tissue cell target of inflammatory cytokines in joint disorders (Bogoch, E. R., and E. Moran. 1998, Can J Surg 41:264-71). […] LB-12 cells were incubated for different times in the absence or presence of IL-1β. […] Since the rapid, but transient induction of ESE-1 resembles that of immediate early genes, we tested the effect of the protein synthesis inhibitor cycloheximide which superinduces expression of certain genes due to mRNA stabilization. Cycloheximide alone had no effect, but superinduced IL-1β-mediated ESE-1 mRNA expression (FIG. 11d).

ESE-1 [3] = assay: ESE-1 mRNA RT-PCR in glioma cells (U-138 MG, U-373 MG); conditions: U-138 MG and U-373 MG glioma cells
Experimental: as §1, §2
U-138 MG cells were infected with the IκB adenovirus (kindly provided by Fionula Brennan) (Bondeson, J., et al. 1999, Proc Natl Acad Sci U S A 96:5668-73) for 1 hour in serum-free medium using a multiple of infection of 1000. After infection the cells were washed with medium and incubated for 16 hours in DMEM containing 10% fetal calf serum in the absence or presence of IL-1β. […]

## IL-1β: interleukin-1 beta, proinflammatory cytokine
ESE-1 [1]
  ESE-1 expression: induced ESE-1 expression in all chondrocyte cell lines
ESE-1 [2]
  ESE-1 mRNA expression, agent alone: rapidly induced
ESE-1 [3]
  ESE-1 expression: rapidly induced transient expression
